# Laboratory results reported in patent publication US20260159536A1, “AKR1C3-ACTIVATED DNA ALKYLATING AGENT, AND MEDICAL APPLICATION THEREOF” (ASCENTAWITS PHARMACEUTICALS, LTD., priority 2021, published 2026).
# Read-outs that look alike come from different tables or passages of the source.
# Legend:
# [1] = system: H460 cancer cells; experiment: H460 proliferation in the presence or absence of AKR1C3 inhibitor AST-3021 (Alamar Blue); format: cell-based, human; conditions: for IC50: Homo sapiens, NCI-H460, H460, 2 hours exposure
# Description: (§1) The tested compound was then added. The compound was dissolved in 100% DMSO at 200 times of the desired final test concentration. When the medicament was added, the compound was further diluted to 4 times of the desired final test concentration by using the complete medium. 50 μL of aliquots of the compound with specific concentration were added to the microwells containing 150 μL of medium, and then the final medicament concentration was obtained. […] The medicament was then washed. […] After the incubation was finished, the Alamar Blue was used to analyze and quantify the living cells.
# [2] = system: NCI-H2110; experiment: AKR1C3-dependent cytotoxicity, NSCLC cell line NCI-H2110; format: cell-based
# Description: as §1
# [3] = system: CAL12T; experiment: AKR1C3-dependent cytotoxicity, NSCLC cell line CAL12T; format: cell-based; conditions: Homo sapiens, CAL-12T
# Description: as §1
# [4] = system: HuPrime model LI6643 human liver cancer; experiment: In vivo pharmacodynamics, liver cancer LI6643 PDX model (Compound A, Sorafenib, AST-3424; section 4.7); design: species or system BALB/c nude mice; conditions: for Relative tumor volume (x ± S) / T/C (%) / TGI (%) / Tumor volume (x ± S): 2 weeks off, QDx5; for Tumor volume (x ± S): in mm³
# Description: Experiment Instruction: BALB/c nude mice were subcutaneously inoculated with HuPrime® model LI6643 tumor blocks to establish a subcutaneous grafted tumor model of human liver cancer. […] The efficacy was evaluated according to the relative tumor inhibition rate TGI (%), and the safety was evaluated according to the change in body weight and the death of the animals.
# [5] = system: HuPrime model LI6664 human liver cancer; experiment: In vivo pharmacodynamics, liver cancer LI6664 PDX model; design: species or system BALB/c nude mice; conditions: for relative tumor inhibition rate TGI (%): QWx3; for Relative tumor volume (x ± S) / Tumor volume (x ± S): mean ± standard error; for Tumor volume (x ± S): in mm³ (unit assumed)
# Description: Experiment Instruction: BALB/c nude mice were subcutaneously inoculated with HuPrime® model LI6664 tumor blocks to establish a subcutaneous transplantation tumor model of human liver cancer. […] Among them, 7.5% anhydrous ethanol+7.5% polyoxyethylene (35) castor oil+85% glucose injection D5W (pH 7.4) vehicle control group was administered by tail vein once a week for 3 consecutive weeks; test drug AST-3424 0.3 mg/kg and 1 mg/kg groups were administered by tail vein injection once a day for 5 consecutive days, followed by 2 days off, followed by 2 weeks off, and then continuously administered for 5 consecutive days; the test drug AST-3424 1.25 mg/kg group was administered by tail vein injection once a week for 2 consecutive weeks, followed by one week off, and then continuously administered for 2 consecutive weeks, Compound A 0.5 mg/kg, 1.5 mg/kg, and 4.5 mg/kg groups were administered by tail vein injection once a week for three consecutive weeks, followed by 1 week off, and then administered for three consecutive weeks. […] The efficacy was evaluated according to the relative tumor inhibition rate TGI (%), and the safety was evaluated according to the change in body weight and the death of the animals.
# [6] = 0.5 mg/kg i.v. QDx5, 2 days off, Day 21
# [7] = 2 mg/kg i.v. QDx5, 2 days off, Day 21
# [8] = Compound A 1 mg/kg i.v. QDx5, 2 days off, Day 21
smiles,measurement,setting,value
O=[N+]([O-])c1ccc(C(OP(=O)(N2CC2)N2CC2)C(F)(F)F)cc1Oc1ccc(-c2ccc(F)cc2)c(F)c1 (racemic) [Compound A],IC50,"[1]; AST-3021 3 micromolar, read-out: IC50 With the addition of AST-3021",2.14 µM
same,IC50,"[1]; no AKR1C3 inhibitor, read-out: IC50 Without the addition of AST-3021",0.00582 µM
same,Fold,[1]; IC50 with AST-3021 over IC50 without,367.13
same,IC50,[2],0.0678 µM
same,IC50,[3],8.08 µM
same,Relative tumor volume (x ± S),[4]; [6],1.84 ± 0.25
same,T/C (%),[4]; [6],38.12%
same,TGI (%),[4]; [6],61.88%
same,Tumor volume (x ± S),[4]; [6],242.85 ± 50.74
same,Tumor volume,"[4]; 0.5 mg/kg i.v., Day 0",124.86 mm^3
same,Tumor volume,"[4]; 0.5 mg/kg i.v., Day 3",239.56 mm^3
same,Tumor volume,"[4]; 0.5 mg/kg i.v., Day 7",282.74 mm^3
same,Tumor volume,"[4]; 0.5 mg/kg i.v., Day 10",266.35 mm^3
same,Tumor volume,"[4]; 0.5 mg/kg i.v., Day 14",231.35 mm^3
same,Tumor volume,"[4]; 0.5 mg/kg i.v., Day 17",241.82 mm^3
same,Tumor volume,"[4]; 0.5 mg/kg i.v., Day 21",242.85 mm^3
same,Tumor volume,"[4]; 0.5 mg/kg i.v., Day 24",173.56 mm^3
same,Tumor volume,"[4]; 0.5 mg/kg i.v., Day 28",188.68 mm^3
same,Relative tumor volume (x ± S),[4]; [7],0.97 ± 0.14
same,T/C (%),[4]; [7],20.19%
same,TGI (%),[4]; [7],79.81%
same,Tumor volume (x ± S),[4]; [7],116.38 ± 20.17
same,Tumor volume,"[4]; 2 mg/kg i.v., Day 0",124.40 mm^3
same,Tumor volume,"[4]; 2 mg/kg i.v., Day 3",182.25 mm^3
same,Tumor volume,"[4]; 2 mg/kg i.v., Day 7",182.74 mm^3
same,Tumor volume,"[4]; 2 mg/kg i.v., Day 10",162.65 mm^3
same,Tumor volume,"[4]; 2 mg/kg i.v., Day 14",137.87 mm^3
same,Tumor volume,"[4]; 2 mg/kg i.v., Day 17",117.10 mm^3
same,Tumor volume,"[4]; 2 mg/kg i.v., Day 21",116.38 mm^3
same,Tumor volume,"[4]; 2 mg/kg i.v., Day 24",122.78 mm^3
same,Tumor volume,"[4]; 2 mg/kg i.v., Day 28",95.87 mm^3
same,Relative tumor volume (x ± S),[4]; [8],1.44 ± 0.16
same,T/C (%),[4]; [8],29.91%
same,TGI (%),[4]; [8],70.09%
same,Tumor volume (x ± S),[4]; [8],174.86 ± 17.43
same,Tumor volume,"[4]; Compound A 1 mg/kg i.v., Day 0",124.32 mm^3
same,Tumor volume,"[4]; Compound A 1 mg/kg i.v., Day 3",205.79 mm^3
same,Tumor volume,"[4]; Compound A 1 mg/kg i.v., Day 7",246.90 mm^3
same,Tumor volume,"[4]; Compound A 1 mg/kg i.v., Day 10",225.40 mm^3
same,Tumor volume,"[4]; Compound A 1 mg/kg i.v., Day 14",195.33 mm^3
same,Tumor volume,"[4]; Compound A 1 mg/kg i.v., Day 17",191.98 mm^3
same,Tumor volume,"[4]; Compound A 1 mg/kg i.v., Day 21",174.86 mm^3
same,Tumor volume,"[4]; Compound A 1 mg/kg i.v., Day 24",217.19 mm^3
same,Tumor volume,"[4]; Compound A 1 mg/kg i.v., Day 28",231.64 mm^3
same,relative tumor inhibition rate TGI (%),"[5]; 0.5 mg/kg i.v. QWx3, 1 week off, Day 28",34.07%
same,relative tumor inhibition rate TGI (%),"[5]; 1.5 mg/kg i.v. QWx3, 1 week off, Day 28",66.57%
same,relative tumor inhibition rate TGI (%),"[5]; 4.5 mg/kg i.v. QWx3, 1 week off, Day 28",77.05%
same,T/C (%),"[5]; Compound A 0.5 mg/kg, Day 28",65.93%
same,Relative tumor volume (x ± S),"[5]; Compound A 0.5 mg/kg, Day 28",8.51 ± 2.07
same,Tumor volume (x ± S),"[5]; Compound A 0.5 mg/kg, Day 28",920.46 ± 215.96
same,T/C (%),"[5]; Compound A 1.5 mg/kg, Day 28",33.43%
same,Relative tumor volume (x ± S),"[5]; Compound A 1.5 mg/kg, Day 28",4.31 ± 0.54
same,Tumor volume (x ± S),"[5]; Compound A 1.5 mg/kg, Day 28",466.31 ± 77.63
same,T/C (%),"[5]; Compound A 4.5 mg/kg, Day 28",22.95%
same,Relative tumor volume (x ± S),"[5]; Compound A 4.5 mg/kg, Day 28",2.96 ± 0.27
same,Tumor volume (x ± S),"[5]; Compound A 4.5 mg/kg, Day 28",320.72 ± 40.03
same,Size of tumor volume,"[5]; Group6, Compound A 0.5 mg/kg, Day 0",108.44 mm^3
same,Size of tumor volume,"[5]; Group6, Compound A 0.5 mg/kg, Day 4",201.76 mm^3
same,Size of tumor volume,"[5]; Group6, Compound A 0.5 mg/kg, Day 7",277.38 mm^3
same,Size of tumor volume,"[5]; Group6, Compound A 0.5 mg/kg, Day 11",301.39 mm^3
same,Size of tumor volume,"[5]; Group6, Compound A 0.5 mg/kg, Day 14",347.30 mm^3
same,Size of tumor volume,"[5]; Group6, Compound A 0.5 mg/kg, Day 18",434.18 mm^3
same,Size of tumor volume,"[5]; Group6, Compound A 0.5 mg/kg, Day 21",518.23 mm^3
same,Size of tumor volume,"[5]; Group6, Compound A 0.5 mg/kg, Day 25",746.19 mm^3
same,Size of tumor volume,"[5]; Group6, Compound A 0.5 mg/kg, Day 28",920.46 mm^3
same,Size of tumor volume,"[5]; Group6, Compound A 0.5 mg/kg, Day 32",1036.44 mm^3
same,Size of tumor volume,"[5]; Group6, Compound A 0.5 mg/kg, Day 35",1258.05 mm^3
same,Size of tumor volume,"[5]; Group6, Compound A 0.5 mg/kg, Day 39",1426.66 mm^3
same,Size of tumor volume,"[5]; Group6, Compound A 0.5 mg/kg, Day 42",1661.81 mm^3
same,Size of tumor volume,"[5]; Group6, Compound A 0.5 mg/kg, Day 46",2037.97 mm^3
same,Size of tumor volume,"[5]; Group6, Compound A 0.5 mg/kg, Day 49",1746.71 mm^3
same,Size of tumor volume,"[5]; Group7, Compound A 1.5 mg/kg, Day 0",108.25 mm^3
same,Size of tumor volume,"[5]; Group7, Compound A 1.5 mg/kg, Day 4",127.56 mm^3
same,Size of tumor volume,"[5]; Group7, Compound A 1.5 mg/kg, Day 7",152.00 mm^3
same,Size of tumor volume,"[5]; Group7, Compound A 1.5 mg/kg, Day 11",161.35 mm^3
same,Size of tumor volume,"[5]; Group7, Compound A 1.5 mg/kg, Day 14",206.44 mm^3
same,Size of tumor volume,"[5]; Group7, Compound A 1.5 mg/kg, Day 18",225.71 mm^3
same,Size of tumor volume,"[5]; Group7, Compound A 1.5 mg/kg, Day 21",287.02 mm^3
same,Size of tumor volume,"[5]; Group7, Compound A 1.5 mg/kg, Day 25",398.93 mm^3
same,Size of tumor volume,"[5]; Group7, Compound A 1.5 mg/kg, Day 28",466.31 mm^3
same,Size of tumor volume,"[5]; Group7, Compound A 1.5 mg/kg, Day 32",543.94 mm^3
same,Size of tumor volume,"[5]; Group7, Compound A 1.5 mg/kg, Day 35",643.84 mm^3
same,Size of tumor volume,"[5]; Group7, Compound A 1.5 mg/kg, Day 39",805.84 mm^3
same,Size of tumor volume,"[5]; Group7, Compound A 1.5 mg/kg, Day 42",1060.20 mm^3
same,Size of tumor volume,"[5]; Group7, Compound A 1.5 mg/kg, Day 46",1179.82 mm^3
same,Size of tumor volume,"[5]; Group7, Compound A 1.5 mg/kg, Day 49",1407.10 mm^3
same,Size of tumor volume,"[5]; Group8, Compound A 4.5 mg/kg, Day 0",108.26 mm^3
same,Size of tumor volume,"[5]; Group8, Compound A 4.5 mg/kg, Day 4",125.30 mm^3
same,Size of tumor volume,"[5]; Group8, Compound A 4.5 mg/kg, Day 7",142.58 mm^3
same,Size of tumor volume,"[5]; Group8, Compound A 4.5 mg/kg, Day 11",150.82 mm^3
same,Size of tumor volume,"[5]; Group8, Compound A 4.5 mg/kg, Day 14",176.69 mm^3
same,Size of tumor volume,"[5]; Group8, Compound A 4.5 mg/kg, Day 18",180.29 mm^3
same,Size of tumor volume,"[5]; Group8, Compound A 4.5 mg/kg, Day 21",201.42 mm^3
same,Size of tumor volume,"[5]; Group8, Compound A 4.5 mg/kg, Day 25",282.76 mm^3
same,Size of tumor volume,"[5]; Group8, Compound A 4.5 mg/kg, Day 28",320.72 mm^3
same,Size of tumor volume,"[5]; Group8, Compound A 4.5 mg/kg, Day 32",339.73 mm^3
same,Size of tumor volume,"[5]; Group8, Compound A 4.5 mg/kg, Day 35",360.45 mm^3
same,Size of tumor volume,"[5]; Group8, Compound A 4.5 mg/kg, Day 39",391.38 mm^3
same,Size of tumor volume,"[5]; Group8, Compound A 4.5 mg/kg, Day 42",417.79 mm^3
same,Size of tumor volume,"[5]; Group8, Compound A 4.5 mg/kg, Day 46",451.01 mm^3
same,Size of tumor volume,"[5]; Group8, Compound A 4.5 mg/kg, Day 49",538.20 mm^3
same,weight loss,"[5]; treatment period, tested doses",no weight loss
